PubChem BioAssay AID2060340 (Molecular Pharmacology Branch, DTP, NCI, 2025)

Test system: 349418-098-R-PDC spheroids, viability, % test/control
Test: Anticancer human tumor 349418-098-R-PDC patient-derived lung adenocarcinoma cell line growth inhibition [IpAb]
Conditions: spheroids with HUVEC and MSC; for IC50: curve of first compound; for viability, T/C: stronger effect = lower value
From the text: Combinatorial screen of targeted agents with ipatasertib and abemaciclib in multi-cell type tumor spheroids
A high-throughput screen of multi-cell type tumor spheroids was designed to identify active combinations of targeted small molecules and ipatasertib or abemaciclib. Complex spheroids include a stromal component modeled by human endothelial cells (HUVEC) and fibroblasts modeled by human mesenchymal stem cells (MSCs). The concentration ranges selected for each drug and investigational agent were based upon clinically achievable concentrations if the clinical Cmax of the agent was known.
Compounds. The drugs and investigational agents: ipatasertib (NSC767898), abemaciclib(NSC768073), selumetinib (NSC741078), trametinib (758246), adavosertib (NSC754352), everolimus (NSC733504), sapanisertib (NSC764658), vemurafenib (NSC761431), venetoclax (NSC766270), copanlisib (NSC809693), apelisib (NSC765974), palbociblib (NSC758247), vemurafenib (NSC761431), dabrafenib (NSC764134), ravoxertinib (NSC781343), BMS-387032 (NSC767048), sotorasib (NSC818433), talazoparib (NSC767125) and afursertib (NSC778305), were obtained from the National Cancer Institute (NCI) Developmental Therapeutics Program Chemical Repository. The FDA-approved anticancer drug set is available from the NCI Developmental Therapeutics Program. […] The stock solutions were prepared in dimethyl sulfoxide (DMSO, Sigma-Aldrich, St. Louis, MO, cat. D2650) at 800-fold the tested concentration and stored at -70 degrees C prior to their use. All drugs and investigational agents were tested over a range starting from a high concentration at or near the clinical Cmax and decreasing in half-log increments. If the clinical Cmax for an agent had not been determined, the highest concentration tested was 10 microM.
NCI60 Cell Culture. NCI60 cell lines were obtained from the NCI Developmental Therapeutics Program Tumor Repository. For each lot of cells, the Repository performed Applied Biosystems AmpFLSTR Identifiler testing with PCR amplification to confirm consistency with the published Identifier STR profile for each cell line. Cells were kept in continuous culture for no more than 20 passages. The optimal seeding densities for each of the cell lines at each time point assessed were determined prior to performing the concentration response studies. Briefly, the NCI60 human tumor lines were grown as monolayers in RPMI 1640 medium supplemented with 10% FBS and 2 mmol/L L-glutamine.
An additional 9 lines were from the NCI60 cell line panel including MDA-MB-231 breast carcinoma, MDA-MB-468 breast carcinoma, MCF7 breast carcinoma, Hs578T breast carcinoma, MALME-3M melanoma, SK-MEL-2 melanoma, SK-OV-3 ovarian carcinoma, DU-145 prostate carcinoma, PC-3 prostate carcinoma, all cell lines along with major genetic alterations are listed on Table 2. Pooled donor human umbilical vein endothelial cells (HUVEC, Lonza, cat. CC-2519) and human mesenchymal stem cells (hMSC, Lonza, cat. PT-2501) were purchased from Lonza (Walkersville, MD).
PDMR cell lines were grown in complete medium (DC medium): Dulbecco's modified Eagle's medium (DMEM)/F12 supplemented with 5% fetal bovine serum (FBS), 2 mM L-glutamine, 100 U/mL penicillin and 100 µg/ml streptomycin, 0.4 µg/ml hydrocortisone, 10 ng/ml epidermal growth factor (EGF) recombinant human protein, 24 µg/mL adenine, and 0.1 mg/mL primocin. During culture from frozen stock vials, PDMR cells were cultured in the same medium containing 10 µM Y-27632 (see Table 3). The PDCs were cultured in complete DMEM/F12 media without 10 microM Y-27632 dihydrochloride for at least two passages prior to the screen. The pooled donor HUVEC and hMSC were cultured in endothelial cell growth medium 2 (PromoCell, Heidelberg, Germany, cat. C-22011) and mesenchymal stem cell growth medium 2 (PromoCell, cat. C-28009), respectively. For all experiments, HUVEC and hMSC were used at passages </=5.
[…]
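Also: spheroids exposed to compounds for 7 days.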

`COc1c(OCCCN2CCOCC2)ccc2c3n(c(=NC(=O)c4cnc(N)nc4)nc12)CCN3` + CCN1CCN(Cc2ccc(Nc3ncc(F)c(-c4cc(F)c5nc(C)n(C(C)C)c5c4)n3)nc2)CC1 gave an IC50 (second compound 0.01 µM) of 5.6 nM, an IC50 (second compound 0.0316 µM) of under 3.16 nM and an IC50 (second compound 0.1 µM) of under 3.16 nM. The IC50 (second compound 0.316 µM) was under 3.16 nM, the IC50 (second compound 1 µM) was under 3.16 nM and the viability, T/C (second compound 0.01 µM, first compound 0.00316 µM) was 66.8%. The viability, T/C (second compound 0.01 µM, first compound 0.01 µM) was 32.9%, the viability, T/C (second compound 0.01 µM, first compound 0.0316 µM) was 9.39% and the viability, T/C (second compound 0.01 µM, first compound 0.1 µM) was 6.45%. For the same compound, the viability, T/C (second compound 0.01 µM, first compound 0.316 µM) was 6.48%, the viability, T/C (second compound 0.01 µM, first compound 1 µM) was 6.24% and the viability, T/C (second compound 0.0316 µM, first compound 0.00316 µM) was 48.8%. The viability, T/C (second compound 0.0316 µM, first compound 0.01 µM) was 13.5%, the viability, T/C (second compound 0.0316 µM, first compound 0.0316 µM) was 8.91% and the viability, T/C (second compound 0.0316 µM, first compound 0.1 µM) was 6.1%. The viability, T/C (second compound 0.0316 µM, first compound 0.316 µM) was 5.57%, the viability, T/C (second compound 0.0316 µM, first compound 1 µM) was 5.71% and the viability, T/C (second compound 0.1 µM, first compound 0.00316 µM) was 23.6%. The viability, T/C (second compound 0.1 µM, first compound 0.01 µM) was 14%, the viability, T/C (second compound 0.1 µM, first compound 0.0316 µM) was 8.06% and the viability, T/C (second compound 0.1 µM, first compound 0.1 µM) was 6.16%. The viability, T/C (second compound 0.1 µM, first compound 0.316 µM) was 6.04%, the viability, T/C (second compound 0.1 µM, first compound 1 µM) was 5.83% and the viability, T/C (second compound 0.316 µM, first compound 0.00316 µM) was 15.9%. For the same compound, the viability, T/C (second compound 0.316 µM, first compound 0.01 µM) was 10.6%, the viability, T/C (second compound 0.316 µM, first compound 0.0316 µM) was 7.73% and the viability, T/C (second compound 0.316 µM, first compound 0.1 µM) was 6.28%. For the same compound, the viability, T/C (second compound 0.316 µM, first compound 0.316 µM) was 6.11%, the viability, T/C (second compound 0.316 µM, first compound 1 µM) was 6.92% and the viability, T/C (second compound 1 µM, first compound 0.00316 µM) was 14%. The viability, T/C (second compound 1 µM, first compound 0.01 µM) was 12.3%, the viability, T/C (second compound 1 µM, first compound 0.0316 µM) was 8.15% and the viability, T/C (second compound 1 µM, first compound 0.1 µM) was 6.25%. The viability, T/C (second compound 1 µM, first compound 0.316 µM) was 7.04% and the viability, T/C (second compound 1 µM, first compound 1 µM) was 7.33%.
